Five compounds from patent publication US11453664B2, “Thymoquinone/harmaline and related reaction products” (Ankh Life Sciences Limited, priority 2018, dated 2022) can be followed below.

The test system of experiment [1] is MIN-6 cell line. Description: Glucose stimulated insulin secretion assay, Example 5. In kind it is cell-based, mouse. To be noted: MIN-6, glucose 2, 10 and 20 mM, 1 hour. The protocol:
In this test, a glucose stimulated insulin secretion assay was performed using the MIN-6 cell line and compounds C1 and C2 of Example 4. The test details and assay conditions are set forth below.
(§1) The cells were washed with KRB containing 0.1% BSA and starved for 1 hour in 2 mM glucose-KRB/BSA at 37° C. in 5% CO2. Following starvation, the cells were treated with or without the compounds at varying glucose concentrations of 2 mM, 10, mM, and 20 mM in KRB/BSA for 1 hour at 37° C. in 5% CO2. The amount of secreted mouse insulin was measured in the KRB/BSA incubation buffer using the mouse insulin ELISA kit from Mercer EXPert Assays. The cells were then lysed for protein quantification. The data presented in FIGS. 5-6 illustrate the secreted insulin test results for glucose and diazoxide, while FIGS. 7-9 (compound C1) and 10-12 (compound C2) illustrate the secreted insulin test results using C1 and C2. The data presented in FIGS. 7-12 are presented as the fold changes in the secreted insulin per milligram protein per hour, compared to the cell control.

Experiment [2] deals with MIN-6 cell line. The experiment in a line: Glucose stimulated insulin secretion assay, Example 7. In kind it is cell-based, mouse. To be noted: 2 hours. The protocol: In this test, another glucose stimulated insulin secretion assay was performed using two test compounds, namely C1 (MW about 378) and C3 (MW about 540). The MIN-6 cell line was used and the test details and assay conditions are set forth below.
The cells were revived and maintained in T-flasks. Upon reaching the required confluency, the cells were seeded in 96-well plates. The seeded cells were serum-starved in the presence of glucose for 30 minutes at 37° C. in 5% CO2. Following starvation, the cells were treated with or without the compounds at the varying glucose concentrations in KRB for 2 hours at 37° C. in 5% CO2. The cell supernatants were collected and tested for insulin secretion using the mouse insulin ELISA kit from Mercer EXPert Assays.

Experiment [3] relates to MIN-6 cell line. Description: Glucose stimulated insulin secretion assay, Example 6. The settings on record: MIN-6, 100 nM, 10 mM of glucose, 1 hour. In kind it is cell-based, mouse. The protocol: In this test, a glucose stimulated insulin secretion assay was performed using the MIN-6 cell line and a compound mixture of compounds VIIID and VIIIF (MW about 540), referred to as C3. The test details and assay conditions are set forth below.
as §1, with “data is” for “data”, “13 (gliclazide)” for “5-6 illustrate the secreted insulin test results for glucose”, “14-16 (C3)” for “diazoxide, while FIGS. 7-9 (compound C1) and 10-12 (compound C2) illustrate the secreted insulin test results using C1 and C2. The data presented in FIGS. 7-12 are presented”, “change” for “changes”

Experiment [4] deals with NOD mouse model of diabetes. Description: NOD mouse model of diabetes, TQ 725 as single agent. In kind it is in vivo, mouse (NOD/ShiLtJ). The protocol:
This test was designed to evaluate the in vivo activity of the TQ-harmaline reaction product (referred to as “TQ 725”), which was a mixture of compounds I-IV and VI (MW about 378), V and VII (MW about 360), and VIIID and VIIIF (MW about 540), as single agent in the NOD mouse model of diabetes. […] The female NOD mice show evidence of diabetes onset by age week 12 and 70% presenting with diabetes (non-fasting plasma glucose higher than 250 mg/dl) by age week 20. The significant endpoint is assessment of weekly blood glucose levels.
The pancreatic tissues from the test mice were assayed by conventional insulin staining according to the following ratings: 0—no staining on islet cells; 1—of islets with positive stains, stain cells are minimal in number; 2—of islets with positive stain, stain cells are less than 50% of the cells; 3—of the islets with positive stains, stain cells are greater than 50% of the cells.
FIGS. 1 and 2 illustrate the body weight and blood glucose level results collected during the test. In each of these Figures, graph A refers to Group 1, the vehicle control (PO) QD to end; graph B refers to Group 2, 725.001 100 mg/kg days 1-27, followed by 400 mg/kg days 28 to end (PO); graph C refers to Group 3, 725.001 200 mg/kg (PO) QD to end; and graph D refers to Group 4, metformin 600 mg/kg (in H2O) Ad libitum days 1-8, followed by 600 mg/kg (PO) QD days 9 to end.

A short description of experiment [5]: Subsequent investigations of activity of the components of TQ 725. To be noted: context: diabetes; no method given.

On to `CC1=NS(=O)(=O)c2cc(Cl)ccc2N1` [Diazoxide], for which the “effect on insulin secretion” value with MIN-6 cell line [1] was “significant inhibition of insulin secretion”.
Turning to `Cc1ccc(S(=O)(=O)NC(=O)NN2CC3CCCC3C2)cc1` (centres unmarked) [Gliclazide], the “insulin secretion at the lower glucose concentration” value in the experiment with MIN-6 cell line [2] (MIN-6, glucose 2 mM, 100 μM) is recorded as “enhanced insulin secretion was observed”. For the same compound, the “insulin secretion at the higher glucose concentration” value in the experiment on MIN-6 cell line [2] (MIN-6, glucose 25 mM) is “saturation effect”. Moreover, the “effect on insulin secretion” value with MIN-6 cell line [3] is “enhanced insulin secretion”.
Consider `CN(C)C(=N)N=C(N)N` [Metformin], for which the body weight entry in experiment [4] (Group 4: 600 mg/kg, data not deemed reliable) was “trended downwardly”. The “insulin staining of pancreatic tissues, mean value” in experiment [4] (Group 4: ad libitum days 1-8, 600 mg/kg PO days 9-56, rating scale 0-3) is on record as 0.50.
For `COc1ccc2c(c1)=NC1C(/C=C3/C=C(C(C)C)C(=O)C=C3C)=NCCC=21` (centres unmarked) [VII], in experiment [5], the “relative activity among the components of TQ 725” value is listed as “most active”.
In the case of `COc1ccc2c(c1)=NC1C(CC3(O)C=C(C(C)C)C(=O)C=C3C)=NCCC=21` (centres unmarked) [VI], the “relative activity among the components of TQ 725” value in experiment [5] was “most active”.
